Experimental data: patent publication US20240360114A1 (SIRONAX LTD., priority 2021, published 2024)

System: HT-1080 cells
Test: HT-1080 cell viability assay (ferroptosis induced by RSL3, Cell Titer-Glo)
Format: cell-based
Details: ferroptosis inducer RSL3, 20 hours, ferroptosis inhibitory activity
Procedure: Example 2. Determination of EC50 Values in HT-1080 Cell Viability Assay
HT-1080 (ATCC, CCL-121) cells (6000 in 100 μl) were seeded in 96-well plates (Corning) and cultured in a 37° C. incubator with a humidified atmosphere of 5% CO2 for overnight. Cells were then treated with ferroptosis inducer RSL3 (TargetMol) and a 3-fold, 10-point serial dilution series of compounds with 1.1 μM as the highest concentration, for 20 hours. Cell viability was assessed using the Cell Titer-Glo Kit (Promega). The luminescence intensity was measured with a microplate reader (Envision, PerkinElmer), and cell viability was calculated by normalizing the data to untreated controls. The EC50 values of the compounds (e.g., Compounds 1-573 and 574-661) were calculated in GraphPad Prism (GraphPad Software, Inc., San Diego, CA, USA). The curves were fitted using a non-linear regression model with a sigmoidal dose response.

[1] = Homo sapiens, HT-1080, 20 h, Table 2
[2] = Homo sapiens, HT-1080, 20 h, Table 3

| EC50 [1] [nM] | SMILES | other results |
| --- | --- | --- |
| 0.1 to 100 | Cc1cc(N2CCCOCC2)ccc1NC1CC2(CC(N)C2)C1 (stereo not shown) [Compound 465, N2-(2-methyl-4-(1,4-oxazepan-4-yl)phenyl)spiro[3.3]heptane-2,6-diamine] |  |
| 0.1 to 100 | CC(=O)NC1CCC(Nc2ccc(C3CCC(C)(C)CC3)cc2)CC1 (single isomer, unassigned) [Compound 157A, N-(4-((4-(4,4-dimethylcyclohexyl)phenyl)amino)cyclohexyl)acetamide] |  |
| 1000 to 10000 | O=C(O)C1CCC(Nc2ccc(N3CCC(C(F)(F)F)CC3)cc2)CC1 (stereo not shown) [Compound 9, 4-((4-(4-(trifluoromethyl)piperidin-1-yl)phenyl)amino)cyclohexane-1-carboxylic acid] |  |
| 100 to 1000 | Cc1cc(C(C)(C)C)ccc1NC1CCC(N)CC1 (stereo not shown) [Compound 184, N1-(4-(tert-butyl)-2-methylphenyl)cyclohexane-1,4-diamine] |  |
|  | CC1(C)CCC(c2ccc(NC3CCC(CNC(N)=O)CC3)cc2)CC1 (stereo not shown) [Compound 116, 1-((4-((4-(4,4-dimethylcyclohexyl)phenyl)amino)cyclohexyl)methyl)urea] | EC50 (Homo sapiens, Table 2): 0.1 to 100 nM |
| 0.1 to 100 | CC(C)C1CCN(c2ncc(NC3CCNCC3)cn2)CC1 [Compound 35, 2-(4-isopropylpiperidin-1-yl)-N-(piperidin-4-yl)pyrimidin-5-amine] |  |
| 100 to 1000 | CC1CCC(Nc2ccc(C3CCCCC3)cc2)CC1 (stereo not shown) [Compound 269, 4-cyclohexyl-N-(4-methylcyclohexyl)aniline] |  |
| 0.1 to 100 | CC(C)(C)c1ccc(NC2CCC(CCCCN)CC2)cc1 (stereo not shown) [Compound 303, N-(4-(4-aminobutyl)cyclohexyl)-4-(tert-butyl)aniline] |  |
| 0.1 to 100 | Cc1cc(N2CC(C)OC(C)C2)c(F)cc1NC[C@H]1CC[C@H](N)CC1 (stereo partly shown) [Compound 432, N-(((1r,4r)-4-aminocyclohexyl)methyl)-4-(2,6-dimethylmorpholino)-5-fluoro-2-methylaniline] |  |
|  | Cc1nc(N2CCC(C3CC(C)OC(C)C3)CC2)ccc1NC1CC2(CC(N)C2)C1 (stereo not shown) [Compound 594, N^2-(6-(4-(2,6-dimethyltetrahydro-2H-pyran-4-yl)piperidin-1-yl)-2-methylpyridin-3-yl)spiro[3.3]heptane-2,6-diamine] | EC50 [2]: 0.1 to 100 nM |
| 0.1 to 100 | CC1(C)Cc2ccc(NC3CCC(N)CC3)cc2C1 (stereo not shown) [Compound 324, N-(2,2-dimethyl-2,3-dihydro-1H-inden-5-yl)cyclohexane-1,4-diamine] |  |
|  | CCc1nc(N2CC(C)OC(C(F)(F)F)C2)ccc1NC1CC2(CC(N)C2)C1 (stereo not shown) [Compound 659, N2-(2-ethyl-6-(2-methyl-6-(trifluoromethyl)morpholino)pyridin-3-yl)spiro[3.3]heptane-2,6-diamine] | EC50 [2]: 0.1 to 100 nM |
| 0.1 to 100 | CC1(N)CCC(Nc2ccc(N3CCC(C(F)(F)F)CC3)cc2)CC1 (stereo not shown) [Compound 51, 1-methyl-N4-(4-(4-(trifluoromethyl)piperidin-1-yl)phenyl)cyclohexane-1,4-diamine] |  |
| 0.1 to 100 | NC1CCC(Nc2ccc(C3CCCC3)cc2)CC1 (single isomer, unassigned) [Compound 139A, N1-(4-cyclopentylphenyl)cyclohexane-1,4-diamine] |  |
|  | Cc1nc(N(C)CC(F)(F)F)ccc1NC1CC2CCC(C1)N2 (stereo not shown) [Compound 656, N^5-(8-azabicyclo[3.2.1]octan-3-yl)-N^2,6-dimethyl-N^2-(2,2,2-trifluoroethyl)pyridine-2,5-diamine] | EC50 [2]: 0.1 to 100 nM |
| 100 to 1000 | CC1CN(c2ccc(NC3CCC(N)CC3)cc2)CC(C)O1 (stereo not shown) [Compound 450, N1-(4-(2,6-dimethylmorpholino)phenyl)cyclohexane-1,4-diamine] |  |
| 0.1 to 100 | Cn1cc(NCC2CCC(Nc3ccc(C(C)(C)C)cc3)CC2)cn1 (stereo not shown) [Compound 346, N-((4-((4-(tert-butyl)phenyl)amino)cyclohexyl)methyl)-1-methyl-1H-pyrazol-4-amine] |  |
|  | Cc1nc(N2CC(C)OC(C)C2)c(F)cc1NC1C2CC3CC1CC(CN)(C3)C2 (single isomer, unassigned) [Compound 539B, N-((2r,5s)-5-(aminomethyl)adamantan-2-yl)-6-(2,6-dimethylmorpholino)-5-fluoro-2-methylpyridin-3-amine] | EC50 (Table 2): 100 to 1000 nM |
| 1000 to 10000 | NC1CCC(Nc2ncc(N3CCC(C(F)(F)F)CC3)cn2)CC1 (single isomer, unassigned) [Compound 64A] |  |
| 0.1 to 100 | CC1(C)CCC(c2ccc(NC3CCC(N)C3)cc2)CC1 (single isomer, unassigned) [Compound 121A, N1-(4-(4,4-dimethylcyclohexyl)phenyl)cyclopentane-1,3-diamine] |  |
|  | CCC1CN(c2ccc(NC3C4CC5CC3CC(C(N)=O)(C5)C4)c(C)n2)CCO1 (stereo not shown) [Compound 590] | EC50 [2]: 100 to 1000 nM |

| EC50 [1] [nM] | SMILES | other results |
| --- | --- | --- |
| 0.1 to 100 | NC(=O)C1CCC(Nc2ccc(N3CCC(C(F)(F)F)CC3)cc2)CC1 (stereo not shown) [Compound 10, 4-((4-(4-(trifluoromethyl)piperidin-1-yl)phenyl)amino)cyclohexane-1-carboxamide] |  |
| 0.1 to 100 | N[C@H]1CCC[C@H]1Nc1ccc(N2CCC(C(F)(F)F)CC2)cc1 [Compound 454, (1R, 2S)-N1-(4-(4-(trifluoromethyl)piperidin-1-yl)phenyl)cyclopentane-1.2-diamine] |  |
|  | Cc1nc(N2CCC(C(C)(C)O)CC2)ccc1NC1CC2(CC(N)C2)C1 (stereo not shown) [Compound 599] | EC50 [2]: 100 to 1000 nM |
| 0.1 to 100 | CC1CCN(c2ccc(NC3CCC(N)CC3)cc2)CC1 (stereo not shown) [Compound 60, N1-(4-(4-methylpiperidin-1-yl)phenyl)cyclohexane-1,4-diamine] |  |
| 100 to 1000 | Cc1nc(N2CC(C)OC(C)C2)ccc1NC1CC2CCC1CC2N (stereo not shown) [Compound 553, N2-(6-(2,6-dimethylmorpholino)-2-methylpyridin-3-yl)bicyclo[2.2.2]octane-2,5-diamine] |  |
| 100 to 1000 | CN1CCC(Nc2ccc(C3CCC(C)(C)CC3)cc2)CC1=O (stereo not shown) [Compound 103, 4-((4-(4,4-dimethylcyclohexyl)phenyl)amino)-1-methylpiperidin-2-one] |  |
| 0.1 to 100 | CN(C)CCNC1CCC(Nc2ccc(C(C)(C)C)cc2)CC1 (stereo not shown) [Compound 257] |  |
| 100 to 1000 | CC1CN(c2ccc(NC3CCC(N)CC3)cc2F)CC(C)O1 (stereo not shown) [Compound 456, N1-(4-(2,6-dimethylmorpholino)-3-fluorophenyl)cyclohexane-1,4-diamine] |  |
| 0.1 to 100 | CC1(N)CCC(Nc2ccc3c(c2)CCCC3)CC1 (stereo not shown) [Compound 119, 1-methyl-N4-(5,6,7,8-tetrahydronaphthalen-2-yl)cyclohexane-1,4-diamine] |  |
| 0.1 to 100 | Cc1cc(N2CCC(C(F)(F)F)CC2)c(Cl)cc1NC1CCC(N)CC1 (stereo not shown) [Compound 56, N1-(5-chloro-2-methyl-4-(4-(trifluoromethyl)piperidin-1-yl)phenyl)cyclohexane-1,4-diamine] |  |
| 100 to 1000 | CC1CN(c2ccc(NC3CCCCC3N)c(F)c2)CC(C)O1 (stereo not shown) [Compound 441, N1-(4-(2,6-dimethylmorpholino)-2-fluorophenyl)cyclohexane-1,2-diamine] |  |
| 0.1 to 100 | CC1(C)CCC(c2ccc(NC3CCC(C(N)=O)C3)cc2)CC1 (single isomer, unassigned) [Compound 146A, 3-((4-(4,4-dimethylcyclohexyl)phenyl)amino)cyclopentane-1-carboxamide] |  |
| 100 to 1000 | CC(C)(C)c1ccc(NC2CCC(CNC(=O)C3CNC(=O)C3)CC2)cc1 (single isomer, unassigned) [Compound 144A, N-((4-((4-(tert-butyl)phenyl)amino)cyclohexyl)methyl)-5-oxopyrrolidine-3-carboxamide] |  |
| 0.1 to 100 | CC1(C)CCC(c2ccc(NC3CCNC(=O)C3)cc2)CC1 (stereo not shown) [Compound 102, 4-((4-(4,4-dimethylcyclohexyl)phenyl)amino)piperidin-2-one] |  |
| 0.1 to 100 | Cc1cc(N2CC(C)OC(C)C2)ccc1NC1CC2(CC(N)C2)C1 (stereo not shown) [Compound 463, N2-(4-(2,6-dimethylmorpholino)-2-methylphenyl)spiro[3.3]heptane-2,6-diamine] |  |
| 100 to 1000 | COCCNC1CCC(Nc2ccc(C(C)(C)C)cc2)CC1 (stereo not shown) [Compound 169, 1-N-(4-(tert-butyl)phenyl)-N4-(2-methoxyethyl)cyclohexane-1,4-diamine] |  |
|  | NC1CCC(Nc2ccc(C3CCCCC3)cc2)CC1 (stereo not shown) [Compound 133, N1-(4-cyclohexylphenyl)cyclohexane-1,4-diamine] | EC50 (Table 2): 0.1 to 100 nM |
| 100 to 1000 | O=C1CC(C(=O)NC2CCC(Nc3ccc(C4CCCCC4)cc3)CC2)CN1 (stereo not shown) [Compound 110, N-(4-((4-cyclohexylphenyl)amino)cyclohexyl)-5-oxopyrrolidine-3-carboxamide] |  |
|  | CCCNc1ccc2cc(NC3CC4(CC(N)C4)C3)ccc2c1 (stereo not shown) [Compound 651, N^2-(6-aminospiro [3.3]heptan-2-yl)-N^6-propylnaphthalene-2,6-diamine] | EC50 [2]: 0.1 to 100 nM |
| 0.1 to 100 | O=C1NC[C@H](C(=O)NCC2CCC(Nc3ccc(C4CCCCC4)cc3)CC2)N1 (single isomer, unassigned) [Compound 117A] |  |

| SMILES | EC50 [1] [nM] | other results |
| --- | --- | --- |
| COCCCCOc1cc(NC2CCC(N)C2)ccc1C(C)(C)C (stereo not shown) [Compound 302, N1-(4-(tert-butyl)-3-(4-methoxybutoxy)phenyl)cyclopentane-1,3-diamine] | 0.1 to 100 |  |
| Cc1nc(N2C3CCC2COC3)ccc1NC1CC2(CC(N)C2)C1 (stereo not shown) [Compound 528, N2-(6-(3-oxa-8-azabicyclo[3.2.1]octan-8-yl)-2-methylpyridin-3-yl)spiro[3.3]heptane-2,6-diamine] | 100 to 1000 |  |
